Biological target: Beta-3 Adrenergic Receptor (Homo sapiens (Human), UniProt P13945)
Experiment: Homogeneous Time-Resolved Fluorescence (HTRF) cAMP antagonist assay, IC50 determination
Type: cell-based
Details: CHO-K1 cells stably expressing recombinant receptor, isoproterenol at EC90
Procedure, shortened: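 CHO-K1 cells stably expressing the recombinant receptor were preincubated with compound (10-point, 5-fold dilutions; top final typically 10 or 100 μM) in PBS with 1 mM IBMX, then stimulated with isoproterenol at its EC90 for 1 h at room temperature. cAMP was read by HTRF against an on-plate standard curve.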

Chain of Beta-3 Adrenergic Receptor (P13945 whole entry, species assumed): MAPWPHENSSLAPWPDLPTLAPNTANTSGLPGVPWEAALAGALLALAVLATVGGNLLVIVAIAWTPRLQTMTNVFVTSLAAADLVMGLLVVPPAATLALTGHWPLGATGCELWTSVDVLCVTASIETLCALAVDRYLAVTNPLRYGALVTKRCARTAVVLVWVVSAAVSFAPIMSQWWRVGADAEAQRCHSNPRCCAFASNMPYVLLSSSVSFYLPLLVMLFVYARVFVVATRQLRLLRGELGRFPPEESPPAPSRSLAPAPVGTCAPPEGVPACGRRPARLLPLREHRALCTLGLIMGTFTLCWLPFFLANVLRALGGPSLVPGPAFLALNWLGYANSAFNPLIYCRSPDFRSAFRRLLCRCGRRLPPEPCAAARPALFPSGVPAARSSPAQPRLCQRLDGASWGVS

Compound | IC50
CCNS(=O)(=O)c1cccc(OC[C@@H](O)CNC2COC3(CCN(S(=O)(=O)c4ccc5ccccc5c4)CC3)C2)c1 (stereo partly drawn) [Compound 101, N-ethyl-3-((2S)-2-hydroxy-3-(8-(naphthalen-2-ylsulfonyl)-1-oxa-8-azaspiro[4.5]decan-3-ylamino)propoxy)benzenesulfonamide] | 0.00962 µM
CNS(=O)(=O)c1cccc(OC[C@@H](O)CNC2COC3(CCN(S(=O)(=O)c4cccc(-c5ccccn5)c4)CC3)C2)c1 (stereo partly drawn) [Compound 102, 3-((2S)-2-hydroxy-3-(8-(3-(pyridin-2-yl)phenylsulfonyl)-1-oxa-8-azaspiro[4.5]decan-3-ylamino)propoxy)-N-methylbenzenesulfonamide] | 0.026 µM
CNS(=O)(=O)c1cccc(OC[C@@H](O)CNC2COC3(CCN(S(=O)(=O)c4cccc(-c5ccc(N)nc5)c4)CC3)C2)c1 (stereo partly drawn) [Compound 103, 3-((2S)-3-(8-(3-(6-aminopyridin-3-yl)phenylsulfonyl)-1-oxa-8-azaspiro[4.5]decan-3-ylamino)-2-hydroxypropoxy)-N-methylbenzenesulfonamide] | 0.0105 µM
CNS(=O)(=O)c1cccc(OC[C@@H](O)CNC2COC3(CCN(S(=O)(=O)c4cccc(-c5cncnc5)c4)CC3)C2)c1 (stereo partly drawn) [Compound 104, 3-((2S)-2-hydroxy-3-(8-(3-(pyrimidin-5-yl)phenylsulfonyl)-1-oxa-8-azaspiro[4.5]decan-3-ylamino)propoxy)-N-methylbenzenesulfonamide] | 0.0173 µM
CNS(=O)(=O)c1cccc(OC[C@@H](O)CNC2COC3(CCN(S(=O)(=O)c4cccc(-c5cccc(CN(C)C)c5)c4)CC3)C2)c1 (stereo partly drawn) [Compound 105, 3-((2S)-3-(8-(3′-((dimethylamino)methyl)biphenyl-3-ylsulfonyl)-1-oxa-8-azaspiro[4.5]decan-3-ylamino)-2-hydroxypropoxy)-N-methylbenzenesulfonamide] | 0.0312 µM
CNS(=O)(=O)c1cccc(OC[C@@H](O)CNC2COC3(CCN(S(=O)(=O)c4cccc(-c5ccncc5)c4)CC3)C2)c1 (stereo partly drawn) [Compound 106, 3-((2S)-2-hydroxy-3-(8-(3-(pyridin-4-yl)phenylsulfonyl)-1-oxa-8-azaspiro[4.5]decan-3-ylamino)propoxy)-N-methylbenzenesulfonamide] | 0.0133 µM
CNS(=O)(=O)c1cccc(OC[C@@H](O)CNC2COC3(CCN(S(=O)(=O)c4cccc(-c5ccnc(C)c5)c4)CC3)C2)c1 (stereo partly drawn) [Compound 107, 3-((2S)-2-hydroxy-3-(8-(3-(2-methylpyridin-4-yl)phenylsulfonyl)-1-oxa-8-azaspiro[4.5]decan-3-ylamino)propoxy)-N-methylbenzenesulfonamide] | 0.0109 µM
CNS(=O)(=O)c1cccc(OC[C@@H](O)CNC2COC3(CCN(S(=O)(=O)c4cccc(-c5cnc(OC)nc5)c4)CC3)C2)c1 (stereo partly drawn) [Compound 108, 3-((2S)-2-hydroxy-3-(8-(3-(2-methoxypyrimidin-5-yl)phenylsulfonyl)-1-oxa-8-azaspiro[4.5]decan-3-ylamino)propoxy)-N-methylbenzenesulfonamide] | 0.0134 µM
CNS(=O)(=O)c1cccc(OC[C@@H](O)CNC2COC3(CCN(S(=O)(=O)c4cccc(-c5cscc5C)c4)CC3)C2)c1 (stereo partly drawn) [Compound 109, 3-((2S)-2-hydroxy-3-(8-(3-(4-methylthiophen-3-yl)phenylsulfonyl)-1-oxa-8-azaspiro[4.5]decan-3-ylamino)propoxy)-N-methylbenzenesulfonamide] | 0.0137 µM
CNS(=O)(=O)c1cccc(OC[C@@H](O)CNC2COC3(CCN(S(=O)(=O)c4cccc(-c5cncc(C)c5)c4)CC3)C2)c1 (stereo partly drawn) [Compound 110, 3-((2S)-2-hydroxy-3-(8-(3-(5-methylpyridin-3-yl)phenylsulfonyl)-1-oxa-8-azaspiro[4.5]decan-3-ylamino)propoxy)-N-methylbenzenesulfonamide] | 0.019 µM
CNS(=O)(=O)c1cccc(OC[C@@H](O)CNC2COC3(CCN(S(=O)(=O)c4cccc(-c5ccc(C)nc5)c4)CC3)C2)c1 (stereo partly drawn) [Compound 111, 3-((2S)-2-hydroxy-3-(8-(3-(6-methylpyridin-3-yl)phenylsulfonyl)-1-oxa-8-azaspiro[4.5]decan-3-ylamino)propoxy)-N-methylbenzenesulfonamide] | 0.0263 µM
CNS(=O)(=O)c1cccc(OC[C@@H](O)CNC2COC3(CCN(S(=O)(=O)c4cccc(-c5cccc(C(=O)O)c5)c4)CC3)C2)c1 (stereo partly drawn) [Compound 112, 3′-(3-((S)-2-hydroxy-3-(3-(N-methylsulfamoyl)phenoxy)propylamino)-1-oxa-8-azaspiro[4.5]decan-8-ylsulfonyl)biphenyl-3-carboxylic acid] | 0.239 µM

Results, then the molecule that gave them:

IC50 | Compound
0.213 µM | CNS(=O)(=O)c1cccc(OC[C@@H](O)CNC2COC3(CCN(S(=O)(=O)c4cccc(-c5cn(C)c(=O)n(C)c5=O)c4)CC3)C2)c1 (stereo partly drawn) [Compound 113, 3-((2S)-3-(8-(3-(1,3-dimethyl-2,4-dioxo-1,2,3,4-tetrahydropyrimidin-5-yl)phenylsulfonyl)-1-oxa-8-azaspiro[4.5]decan-3-ylamino)-2-hydroxypropoxy)-N-methylbenzenesulfonamide]
0.0103 µM | CNS(=O)(=O)c1cccc(OC[C@@H](O)CNC2COC3(CCN(S(=O)(=O)c4cccc(-c5ccc(OCC#N)cc5)c4)CC3)C2)c1 (stereo partly drawn) [Compound 114, 3-((2S)-3-(8-(4′-(cyanomethoxy)biphenyl-3-ylsulfonyl)-1-oxa-8-azaspiro[4.5]decan-3-ylamino)-2-hydroxypropoxy)-N-methylbenzenesulfonamide]
0.0335 µM | CNS(=O)(=O)c1cccc(OC[C@@H](O)CNC2COC3(CCN(S(=O)(=O)c4cccc(-c5cccc(S(=O)(=O)N(C)C)c5)c4)CC3)C2)c1 (stereo partly drawn) [Compound 115, 3′-(3-((S)-2-hydroxy-3-(3-(N-methylsulfamoyl)phenoxy)propylamino)-1-oxa-8-azaspiro[4.5]decan-8-ylsulfonyl)-N,N-dimethylbiphenyl-3-sulfonamide]
0.0235 µM | CNS(=O)(=O)c1cccc(OC[C@@H](O)CNC2COC3(CCN(S(=O)(=O)c4cccc(-c5sccc5C)c4)CC3)C2)c1 (stereo partly drawn) [Compound 116, 3-((2S)-2-hydroxy-3-(8-(3-(3-methylthiophen-2-yl)phenylsulfonyl)-1-oxa-8-azaspiro[4.5]decan-3-ylamino)propoxy)-N-methylbenzenesulfonamide]
0.0145 µM | CNS(=O)(=O)c1cccc(OC[C@@H](O)CNC2COC3(CCN(S(=O)(=O)c4cccc(-c5ccc(CC#N)cc5)c4)CC3)C2)c1 (stereo partly drawn) [Compound 117, 3-((2S)-3-(8-(4′-(cyanomethyl)biphenyl-3-ylsulfonyl)-1-oxa-8-azaspiro[4.5]decan-3-ylamino)-2-hydroxypropoxy)-N-methylbenzenesulfonamide]
0.0241 µM | CNS(=O)(=O)c1cccc(OC[C@@H](O)CNC2COC3(CCN(S(=O)(=O)c4cccc(-c5cccc(CO)c5)c4)CC3)C2)c1 (stereo partly drawn) [Compound 118, 3-((2S)-2-hydroxy-3-(8-(3′-(hydroxymethyl)biphenyl-3-ylsulfonyl)-1-oxa-8-azaspiro[4.5]decan-3-ylamino)propoxy)-N-methylbenzenesulfonamide]
0.203 µM | CNS(=O)(=O)c1cccc(OC[C@@H](O)CNC2COC3(CCN(S(=O)(=O)c4cn(C)c(C)n4)CC3)C2)c1 (stereo partly drawn) [Compound 119, 3-((2S)-3-(8-(1,2-dimethyl-1H-imidazol-4-ylsulfonyl)-1-oxa-8-azaspiro[4.5]decan-3-ylamino)-2-hydroxypropoxy)-N-methylbenzenesulfonamide]
0.0364 µM | CCC(C)(C)c1ccc(S(=O)(=O)N2CCC3(CC2)CC(NC[C@H](O)COc2cccc(S(=O)(=O)NC)c2)CO3)cc1 (stereo partly drawn) [Compound 120, 3-((2S)-2-hydroxy-3-(8-(4-tert-pentylphenylsulfonyl)-1-oxa-8-azaspiro[4.5]decan-3-ylamino)propoxy)-N-methylbenzenesulfonamide]
0.067 µM | CNS(=O)(=O)c1cccc(OC[C@@H](O)CNC2COC3(CCN(S(=O)(=O)c4ccc(-c5ccc(C(F)(F)F)cc5)cc4)CC3)C2)c1 (stereo partly drawn) [Compound 121, 3-((2S)-2-hydroxy-3-(8-(4′-(trifluoromethyl)biphenyl-4-ylsulfonyl)-1-oxa-8-azaspiro[4.5]decan-3-ylamino)propoxy)-N-methylbenzenesulfonamide]
0.0341 µM | CNS(=O)(=O)c1cccc(OC[C@@H](O)CNC2COC3(CCN(S(=O)(=O)c4ccc(-c5ccc(F)cc5)cc4)CC3)C2)c1 (stereo partly drawn) [Compound 122, 3-((2S)-3-(8-(4′-fluorobiphenyl-4-ylsulfonyl)-1-oxa-8-azaspiro[4.5]decan-3-ylamino)-2-hydroxypropoxy)-N-methylbenzenesulfonamide]
0.0405 µM | CNS(=O)(=O)c1cccc(OC[C@@H](O)CNC2COC3(CCN(S(=O)(=O)c4ccc(-c5ccccc5)cc4)CC3)C2)c1 (stereo partly drawn) [Compound 123, 3-((2S)-3-(8-(biphenyl-4-ylsulfonyl)-1-oxa-8-azaspiro[4.5]decan-3-ylamino)-2-hydroxypropoxy)-N-methylbenzenesulfonamide]
0.0362 µM | CNS(=O)(=O)c1cccc(OC[C@@H](O)CNC2COC3(CCN(S(=O)(=O)c4cccc(Oc5ccccc5)c4)CC3)C2)c1 (stereo partly drawn) [Compound 124, 3-((2S)-2-hydroxy-3-(8-(3-phenoxyphenylsulfonyl)-1-oxa-8-azaspiro[4.5]decan-3-ylamino)propoxy)-N-methylbenzenesulfonamide]
0.0781 µM | CNS(=O)(=O)c1cccc(OC[C@@H](O)CNC2COC3(CCN(S(=O)(=O)C4CCCCC4)CC3)C2)c1 (stereo partly drawn) [Compound 125, 3-((2S)-3-(8-(cyclohexylsulfonyl)-1-oxa-8-azaspiro[4.5]decan-3-ylamino)-2-hydroxypropoxy)-N-methylbenzenesulfonamide]
0.013 µM | CNS(=O)(=O)c1cccc(OC[C@@H](O)CNC2COC3(CCN(S(=O)(=O)c4ccc5c(c4)NC(=O)CO5)CC3)C2)c1 (stereo partly drawn) [Compound 126, 3-((2S)-2-hydroxy-3-(8-(3-oxo-3,4-dihydro-2H-benzo[b][1,4]oxazin-6-ylsulfonyl)-1-oxa-8-azaspiro[4.5]decan-3-ylamino)propoxy)-N-methylbenzenesulfonamide]

From patent US11987588B2, “Modulators of the beta-3 adrenergic receptor useful for the treatment or prevention of heart failure and disorders related thereto” (Arena Pharmaceuticals, Inc., priority 2017, dated 2024)
